From patent publication US20240317706A1, “COMPOUNDS THAT MEDIATE PROTEIN DEGRADATION AND METHODS OF USE THEREOF” (Monte Rosa Therapeutics, Inc., priority 2021, published 2024)

The compounds below were run against T1, CDK2 (Homo sapiens, UniProt P24941) (assay: NanoBiT assay (CDK2 degradation)). Conditions: HEK293, HEK293 clonal line with CRISPR KI HiBiT tag on CDK2, Endurazine live cell substrate, 24 hours.
T1 construct: HEK293 clonal lines with CRISPR KI HiBiT tag on CDK2 proteins; host or cells: HEK293 clonal line, CRISPR knock-in HiBiT-CDK2, stably expressing LgBiT
Format: cell-based
Description: HEK293 clonal lines with CRISPR KI HiBiT tag on either CDK2 proteins and stably expressing LgBiT protein were obtained from Promega (Madison, WI). Cells were plated at 5000 cells per well using Multiflo (BioTek) in 384-well white solid bottom plates (Corning, 3570BC) in 25 ul volume in DMEM media (DMEM, high glucose, HEPES, no phenol red (ThermoFisher Scientific, 21063029)) containing 10% FBS (Corning, 35-075-CV), 1% Penicillin/Streptomycin ((ThermoFisher Scientific, 15140-122), and 1% Endurazine (Nano-Glo Endurazine Live Cell Substrate (Promega, N2571)). Cells were incubated for 16 hours at 37 C, 5% CO2. 75 nL of a compound at 30 μM were dosed into the plate using an Echo® 650 liquid handler (Labcyte). Cells were incubated at 37° C., 5% CO2 for 24 hours and then signal was read on a Pherastar FSX using “LUM plus” optic module.
Analysis was performed in Scinamic (Scinamic, Cambridge, MA). Luminescence response (R) was calculated by the formula: response=100*(S−N)/(P−N) where S is the signal of the well, N and P the mean negative and positive control values respectively of the same plate. The luminescence response was then fitted in Scinamic using a 3-parameter agonist logistic fit (hillslope=1, EC50>0, top/bottom unconstrained).

Row | Dmax [%] | SMILES
1 | 50 to 80 | CC1(C)[C@@H]2C[C@@H](OC(=O)NCc3ccc4c(c3)C(=O)N(C3CCC(=O)NC3=O)C4)C[C@@H]21 (stereo partly drawn) [Compound 62, (1R,3s,5S)-6,6-dimethylbicyclo[3.1.0]hexan-3-yl N-{[2-(2,6-dioxopiperidin-3-yl)-3-oxo-2,3-dihydro-1H-isoindol-5-yl]methyl}carbamate]
2 | ≤ 10 | CC1(C)OC[C@@H](COC(=O)NCc2ccc3c(c2)C(=O)N(C2CCC(=O)NC2=O)C3)O1 (stereo partly drawn) [Compound 87, [(4S)-2,2-dimethyl-1,3-dioxolan-4-yl]methyl N-{[2-(2,6-dioxopiperidin-3-yl)-3-oxo-2,3-dihydro-1H-isoindol-5-yl]methyl}carbamate]
3 | 10 to 50 | CC1(COC(=O)NCc2ccc3c(c2)C(=O)N(C2CCC(=O)NC2=O)C3)CCCCC1 (stereo not shown) [Compound 85, (1-methylcyclohexyl)methyl N-{[2-(2,6-dioxopiperidin-3-yl)-3-oxo-2,3-dihydro-1H-isoindol-5-yl]methyl}carbamate]
4 | ≤ 10 | O=C1CCC(N2Cc3ccc(CNC(=O)OC[C@H]4[C@@H]5COC[C@@H]54)cc3C2=O)C(=O)N1 (stereo partly drawn) [Compound 61, [(1R,5S,6R)-3-oxabicyclo[3.1.0]hexan-6-yl]methyl N-{[2-(2,6-dioxopiperidin-3-yl)-3-oxo-2,3-dihydro-1H-isoindol-5-yl]methyl}carbamate]
5 | 10 to 50 | O=C1CCC(N2Cc3ccc(CNC(=O)OCC#CC4CC4)cc3C2=O)C(=O)N1 (stereo not shown) [Compound 44, 3-cyclopropylprop-2-yn-1-yl N-{[2-(2,6-dioxopiperidin-3-yl)-3-oxo-2,3-dihydro-1H-isoindol-5-yl]methyl}carbamate]
6 | ≤ 10 | C[C@@H](OC(=O)NCc1ccc2c(c1)C(=O)N(C1CCC(=O)NC1=O)C2)C1CC12CC2 (stereo partly drawn) [Compound 71, (1R)-1-{spiro[2.2]pentan-1-yl}ethyl N-{[2-(2,6-dioxopiperidin-3-yl)-3-oxo-2,3-dihydro-1H-isoindol-5-yl]methyl}carbamate]
7 | ≤ 10 | O=C1CCC(N2Cc3ccc(CNC(=O)OCC4CCCS4(=O)=O)cc3C2=O)C(=O)N1 (stereo not shown) [Compound 82, (1,1-dioxo-1lambda6-thiolan-2-yl)methyl N-{[2-(2,6-dioxopiperidin-3-yl)-3-oxo-2,3-dihydro-1H-isoindol-5-yl]methyl}carbamate]
8 | 10 to 50 | CC(C)O[C@H]1C[C@@H](OC(=O)NCc2ccc3c(c2)C(=O)N(C2CCC(=O)NC2=O)C3)C1 (stereo partly shown) [Compound 55, (1s,3s)-3-(propan-2-yloxy)cyclobutyl N-{[2-(2,6-dioxopiperidin-3-yl)-3-oxo-2,3-dihydro-1H-isoindol-5-yl]methyl}carbamate]
9 | 10 to 50 | CC1(C)C2CCC1(COC(=O)NCc1ccc3c(c1)C(=O)N(C1CCC(=O)NC1=O)C3)CC2 (stereo not shown) [Compound 63, {7,7-dimethylbicyclo[2.2.1]heptan-1-yl}methyl N-{[2-(2,6-dioxopiperidin-3-yl)-3-oxo-2,3-dihydro-1H-isoindol-5-yl]methyl}carbamate]
10 | ≤ 10 | O=C1CCC(N2Cc3ccc(CNC(=O)OC[C@@H]4C[C@H]4F)cc3C2=O)C(=O)N1 (mixture of isomers) [Compound 75, rac-[(1R,2S)-2-fluorocyclopropyl]methyl N-{[2-(2,6-dioxopiperidin-3-yl)-3-oxo-2,3-dihydro-1H-isoindol-5-yl]methyl}carbamate]
11 | ≤ 10 | C[C@@H]1CCOC1COC(=O)NCc1ccc2c(c1)C(=O)N(C1CCC(=O)NC1=O)C2 (mixture of isomers) [Compound 76, rac-[(2R,3S)-3-methyloxolan-2-yl]methyl N-{[2-(2,6-dioxopiperidin-3-yl)-3-oxo-2,3-dihydro-1H-isoindol-5-yl]methyl}carbamate]
12 | ≤ 10 | CC1(COC(=O)NCc2ccc3c(c2)C(=O)N(C2CCC(=O)NC2=O)C3)CN(C2CC2)C1 (stereo not shown) [Compound 97, (1-cyclopropyl-3-methylazetidin-3-yl)methyl N-{[2-(2,6-dioxopiperidin-3-yl)-3-oxo-2,3-dihydro-1H-isoindol-5-yl]methyl}carbamate]
13 | ≤ 10 | CC(=O)N1CCC(COC(=O)NCc2ccc3c(c2)C(=O)N(C2CCC(=O)NC2=O)C3)C1 (stereo not shown) [Compound 50, (1-acetylpyrrolidin-3-yl)methyl N-{[2-(2,6-dioxopiperidin-3-yl)-3-oxo-2,3-dihydro-1H-isoindol-5-yl]methyl}carbamate]
14 | 10 to 50 | O=C1CCC(N2Cc3ccc(CNC(=O)OCC4CCCCS4)cc3C2=O)C(=O)N1 (stereo not shown) [Compound 53, (thian-2-yl)methyl N-{[2-(2,6-dioxopiperidin-3-yl)-3-oxo-2,3-dihydro-1H-isoindol-5-yl]methyl}carbamate]
15 | 10 to 50 | C[C@@H]1CC[C@H](COC(=O)NCc2ccc3c(c2)C(=O)N(C2CCC(=O)NC2=O)C3)O1 (mixture of isomers) [Compound 68, rac-[(2R,5R)-5-methyloxolan-2-yl]methyl N-{[2-(2,6-dioxopiperidin-3-yl)-3-oxo-2,3-dihydro-1H-isoindol-5-yl]methyl}carbamate]
16 | 10 to 50 | CC1CN(CCOC(=O)NCc2ccc3c(c2)C(=O)N(C2CCC(=O)NC2=O)C3)C1 (stereo not shown) [Compound 98, 2-(3-methylazetidin-1-yl)ethyl N-{[2-(2,6-dioxopiperidin-3-yl)-3-oxo-2,3-dihydro-1H-isoindol-5-yl]methyl}carbamate]
17 | 10 to 50 | O=C1CCC(N2Cc3ccc(CNC(=O)OCC4CSC4)cc3C2=O)C(=O)N1 (stereo not shown) [Compound 60, (thietan-3-yl)methyl N-{[2-(2,6-dioxopiperidin-3-yl)-3-oxo-2,3-dihydro-1H-isoindol-5-yl]methyl}carbamate]
18 | ≤ 10 | O=C1CCC(N2Cc3ccc(CNC(=O)OCCC4CC4(F)F)cc3C2=O)C(=O)N1 (stereo not shown) [Compound 78, 2-(2,2-difluorocyclopropyl)ethyl N-{[2-(2,6-dioxopiperidin-3-yl)-3-oxo-2,3-dihydro-1H-isoindol-5-yl]methyl}carbamate]
19 | ≤ 10 | O=C1CCC(N2Cc3ccc(CNC(=O)O[C@H]4C[C@@H]5C[C@H]4CC5(F)F)cc3C2=O)C(=O)N1 (mixture of isomers) [Compound 92, rac-(1R,2R,4R)-5,5-difluorobicyclo[2.2.1]heptan-2-yl N-{[2-(2,6-dioxopiperidin-3-yl)-3-oxo-2,3-dihydro-1H-isoindol-5-yl]methyl}carbamate]
20 | ≤ 10 | COCC1(COC(=O)NCc2ccc3c(c2)C(=O)N(C2CCC(=O)NC2=O)C3)CCCC1 (stereo not shown) [Compound 57, [1-(methoxymethyl)cyclopentyl]methyl N-{[2-(2,6-dioxopiperidin-3-yl)-3-oxo-2,3-dihydro-1H-isoindol-5-yl]methyl}carbamate]
21 | 10 to 50 | CCC1(COC(=O)NCc2ccc3c(c2)C(=O)N(C2CCC(=O)NC2=O)C3)COC1 (stereo not shown) [Compound 42, (3-ethyloxetan-3-yl)methyl N-{[2-(2,6-dioxopiperidin-3-yl)-3-oxo-2,3-dihydro-1H-isoindol-5-yl]methyl}carbamate]

Row | SMILES | Dmax [%]
22 | CN(C(=O)OC(C)(C)C)C1CC(COC(=O)NCc2ccc3c(c2)C(=O)N(C2CCC(=O)NC2=O)C3)C1 (stereo not shown) [Compound 96, (3-{[(tert-butoxy)carbonyl](methyl)amino}cyclobutyl)methyl N-{[2-(2,6-dioxopiperidin-3-yl)-3-oxo-2,3-dihydro-1H-isoindol-5-yl]methyl}carbamate] | 10 to 50
